Reference: article PMC7615677 (Science translational medicine, 2023)
Like-named read-outs stand apart in the source and are kept apart here.

Tests used:
L. infantum [1] = assay: Chronic hamster infection model (VL); type: in vivo, golden hamsters
Source text: Female golden hamsters (5 per treatment group) were infected through intracardiac administration of 2x10^7 L. infantum amastigotes obtained from the spleen of a heavily infected donor hamster. […] After 5-day treatment period, followed by a 10-day wash out period, animals were sacrificed, and parasites burden assessed in the three target organs (liver, spleen, and bone-marrow). For this assessment, organs of individual animals were weighed, except for bone-marrow thus only providing a semi-quantitative evaluation only. Impression smears were Giemsa-stained for microscopic evaluation of amastigote burden, expressed as LDU (= mean number of amastigotes/cell × organ weight in mg) and the results were expressed as a percentage reduction compared to the burdens in the control group (vehicle as placebo). For evaluating the presence of viable residual burden after treatment, a promastigote back-transformation assay was conducted. This consisted of the incubation at ambient temperature of aseptically collected pieces of spleen or liver tissue in 1 mL of promastigote back-transformation medium in 24-well plates. For the bone-marrow, resected femurs were flushed with 1 mL medium. The medium consists of HOMEM pH 6.0 prepared as described elsewhere ([5]) with 10% fetal bovine serum (Gibco), 2.5% penicillin/streptomycin and 1% gentamicin (Merck). […]

[2] = Binding to hepatocytes, calculated from microsomal binding; type: in vitro ADME; conditions: human, 1 x 10^6 cells/mL, read-out: hepatocyte fraction unbound
Protocol: Dialysis was conducted for 6 h and parallel non-dialyzed samples were included to confirm the absence of compound degradation. Binding to hepatocytes (at a cell density of 1 x 10^6 cells/mL) was calculated from the measured microsomal binding (at 1 mg/mL) as described previously ([26]). The fraction unbound (fu) was determined from the ratio of the dialysate to the donor concentration, assuming that the system was at steady state at the end of the dialysis period. For plasma, the data were corrected for the dilution factor to give a binding value for neat plasma according to previously published methods ([27]).

[3] = In vitro metabolism, liver microsomes; type: in vitro ADME; conditions: Rat
Protocol: Compounds were spiked into microsomal matrix prepared in 0.1 M pH 7.4 phosphate buffer containing magnesium chloride (final concentration of 3.3 mM), equilibrated for 5-10 min at 37°C. The reaction was initiated with the addition of freshly prepared solution of NADPH (final 1.3 mM). Control samples without co-factor were included for comparison. Aliquots of the reaction mixtures were taken periodically over 60 min and quenched with acetonitrile containing internal standards (metolazone and diazepam). Quenched samples were maintained on ice for approximately 20-30 min, centrifuged (for 5 min) and the supernatant was analyzed by LC-MS.
In vitro intrinsic clearance (CLint, μL/min/mg or μL/min/10^6 cells) values were calculated from the apparent first order degradation rate constant divided by the microsome concentration or the hepatocyte cell number (10^6 viable cells/mL). In vitro CLint values were then divided by the fraction unbound in the in vitro test system (to give CLint,u) and scaled to in vivo values (mL/min/kg) using published physiological scaling factors ([28]). Blood clearance in each species was then calculated using the well-stirred model of hepatic extraction (equation 2) where Q is the hepatic blood flow and fu,blood is calculated from fu,plasma/B:P: [2] PredictedCLblood=Q x fu,blood x CLint,u/Q+fu,blood x CLint,u […]

In vivo pharmacokinetics = assay: In vivo pharmacokinetics; design: species or system male Sprague Dawley rats; conditions: for Vd: read-out: Plasma Vss
Protocol: Single dose intravenous (IV) pharmacokinetic (PK) studies in male Sprague Dawley rats and IV and oral PK studies in female BALB/c mice were conducted at Monash University. […] Blood was sampled via a cannula implanted in the carotid artery (also on the day prior to dosing) at pre-determined time points up to 24 h post-dose. Samples were transferred to vials containing heparin as an anticoagulant, gently mixed and centrifuged, and plasma separated for subsequent quantitative analysis using LC-MS. […] A dose of 25 mg/kg prepared in an aqueous suspension vehicle containing 0.5% hydroxypropyl methylcellulose, 0.5% benzyl alcohol and 0.4% polysorbate 80 (0.2 mL per mouse) was also dosed via oral gavage. Mouse blood was sampled via submandibular bleed up to 24 h post-dose (n=2 mice per time point, n=3 samples per mouse) into vials containing heparin and plasma was separated for quantitative analysis as described above.
Additional PK studies were also conducted by WuXi AppTec Co, Ltd (Shanghai, China) according to protocols reviewed and approved by DNDi. […] IV and oral formulations for rats, mice and hamsters were the same as described above. For dogs, the IV dose was administered in saline containing 2% DMSO and 3% Solutol HS-15 and the oral formulation was as described above. Blood was sampled up to 48 h post-dose into vials containing potassium EDTA as an anticoagulant, proteins were precipitated with acetonitrile and plasma was separated and assayed by LC-MS.
Single dose pharmacokinetic parameters (clearance, volume of distribution and half-life) were initially estimated using non-compartmental methods and oral bioavailability was calculated using the ratio of the dose corrected AUC after oral dosing relative to that after IV administration. Nominal doses were used in the calculations unless the measured dose differed by more than 15% from the nominal dose, in which case the measured dose was used. Where a full concentration versus time profile was obtained from a single animal, parameters were estimated for each animal and mean and standard deviations calculated. In the case of mice where sparse sampling was used with multiple animals per time point, the data analysis was conducted using the mean profile.

L. infantum [4] = assay: PK/PD analysis of liver burden versus cumulative unbound AUC; type: in vivo, mice; conditions: Mouse – L. infantum; estimated using the fitted parameters
Source text: To determine the correlation between the pharmacokinetic (PK) and pharmacodynamic (PD) data, repeat dose profiles in mice and hamsters following single and twice daily dosing were simulated using the fitted parameters.
Other parameters were less well correlated to efficacy, presumably given that none reflect the cumulative exposure profile with an extended treatment regimen. […] Results for mice infected with L. donovani were similar to those for L. infantum (Table S15).

[5] = In vitro cytotoxicity assay; type: cell-based; conditions: mouse, 3T3 mouse embryo fibroblasts
in vivo = conditions: both, Wistar Han, rat, po
Source text: Parameters monitored included morbidity/mortality, clinical signs, body weight, food consumption, hematology and serum clinical chemistry. Main study animals were killed on the day after the last dose and necropsied. Selected organs were weighed. Organ/tissue samples were fixed and preserved at necropsy. Following the macroscopic examination, selected organs/tissues were examined histopathologically and compared to the control group. Satellite animals were sampled for toxicokinetics on days 1 and 14, at various time-points after treatment.

[6] = male, Sprague Dawley, plasma, Rat, oral 10 mg/kg
[7] = male, Sprague Dawley, rat, plasma, rats, single oral 50 mg/kg
[8] = male, Sprague Dawley, rat, plasma, rats, single oral 100 mg/kg
[9] = male, Sprague Dawley, rat, plasma, rats, single oral 300 mg/kg

Cc1[nH]c2nc(N)nc(C)c2c1-c1ccc(C#N)c2c1OCO2 [DNDI-6174]
minimum efficacious daily dose (L. infantum [1]; given qd for 5 days): 12.5 mg/kg
reduction of the parasite burden (L. infantum [1]; once daily dosing at and above 12.5 mg/kg, liver, spleen and bone-marrow): more than 99%
fraction unbound [2]: 0.63
Microsome predicted in vivo CLplasma [3]: 2.4 mL/min/kg
microsomal CLint at 0.5 µM ([3]; liver microsomes, pH 7.4, 2 independent experiments, read-out: In vitro Microsome CLint): 10 ± 0.79 µL/min/mg
Cmax (In vivo pharmacokinetics; [6]): 4210 ng/mL
Tmax (In vivo pharmacokinetics; [6]): 4 h
bioavailability (In vivo pharmacokinetics; [6]): 93%
half-life (In vivo pharmacokinetics; male, Sprague Dawley, rat, plasma, iv, 3 mg/kg, Rat, intravenous 3.0 mg/kg, Monash University, read-out: Apparent t1/2 (converted)): 7.9 h
AUC(0-inf) (In vivo pharmacokinetics; male, Sprague Dawley, rat, plasma, iv, 3 mg/kg, Rat, intravenous 3.0 mg/kg, Monash University, read-out: Plasma AUC0-inf): 23600 ng·h/mL
clearance (In vivo pharmacokinetics; male, Sprague Dawley, rat, plasma, iv, 3 mg/kg, Rat, intravenous 3.0 mg/kg, Monash University, read-out: Plasma CL): 2.12 mL/min/kg
Vd (In vivo pharmacokinetics; male, Sprague Dawley, rat, plasma, iv, 3 mg/kg, Rat, intravenous 3.0 mg/kg, Monash University): 1.4 L/kg
half-life (In vivo pharmacokinetics; male, Sprague Dawley, rat, plasma, iv, 3 mg/kg, Rat, intravenous 3.0 mg/kg, WuXi AppTec, read-out: Apparent t1/2 (converted)): 5.3 h
AUC(0-inf) (In vivo pharmacokinetics; male, Sprague Dawley, rat, plasma, iv, 3 mg/kg, Rat, intravenous 3.0 mg/kg, WuXi AppTec, read-out: Plasma AUC0-inf): 18500 ng·h/mL
clearance (In vivo pharmacokinetics; male, Sprague Dawley, rat, plasma, iv, 3 mg/kg, Rat, intravenous 3.0 mg/kg, WuXi AppTec, read-out: Plasma CL): 2.95 mL/min/kg
Vd (In vivo pharmacokinetics; male, Sprague Dawley, rat, plasma, iv, 3 mg/kg, Rat, intravenous 3.0 mg/kg, WuXi AppTec): 1.3 L/kg
clearance (In vivo pharmacokinetics; male, Sprague Dawley, rat, plasma, iv, 3 mg/kg, Rat, read-out: Measured in vivo CLplasma): 2.5 mL/min/kg
half-life (In vivo pharmacokinetics; male, Sprague Dawley, rat, plasma, po, 10 mg/kg, Rat, oral 10 mg/kg, read-out: Apparent t1/2 (converted)): 7 h
AUC(0-inf) (In vivo pharmacokinetics; male, Sprague Dawley, rat, plasma, po, 10 mg/kg, Rat, oral 10 mg/kg, read-out: Plasma AUC0-∞): 57700 ng·h/mL
AUC(0-inf) (In vivo pharmacokinetics; male, Sprague Dawley, rat, plasma, po, 50 mg/kg, rats, single oral 50 mg/kg, read-out: AUC0-∞): 292000 ng·h/mL
half-life (In vivo pharmacokinetics; male, Sprague Dawley, rat, plasma, po, 50 mg/kg, rats, single oral 50 mg/kg, read-out: T1/2 (converted)): 9.05 h
Cmax (In vivo pharmacokinetics; [7]): 14200 ng/mL
Tmax (In vivo pharmacokinetics; [7]): 5.7 h
Cmax (In vivo pharmacokinetics; [8]): 20900 ng/mL
Tmax (In vivo pharmacokinetics; [8]): 17 h
Cmax (In vivo pharmacokinetics; [9]): 30900 ng/mL
Tmax (In vivo pharmacokinetics; [9]): 27 h
parent compound excreted unchanged in urine (In vivo pharmacokinetics; rats, intravenous): < 1%
AUC0-24 (reported in AUC0-∞ line) (In vivo pharmacokinetics; rats, single oral 100 mg/kg): 430000 ng·h/mL
AUC0-24 (reported in AUC0-∞ line) (In vivo pharmacokinetics; rats, single oral 300 mg/kg): 562000 ng·h/mL
unbound ED95 (L. infantum [4]): 27
CC50 [5]: > 37 µM
NOAEL at 14 days (in vivo): 80 mg/kg
